The values that follow come from patent US20100075907A1, “NEUROMEDIN U RECEPTOR AGONISTS AND USES THEREOF” (priority 2006, published 2010).

One experiment deals with rat NMUR2 (Rattus norvegicus, UniProt Q9ESQ4). Briefly: FLIPR calcium mobilization assay, rat NMUR2. Set-up: expressed in transfected cells; host or cells: FLP-In CHO or HEK-293 FLP-In cells (pcDNA5). Particulars: for IC50: functional data, rat R2. It counts as cell-based. From the text: (§1) Human, mouse or rat cDNAs encoding NMUR1 or NMUR2 (as described in Howard et al. Nature 406: 70-74 (2000) were subcloned in pcDNA5 (Invitrogen) and transfected into FLP-In CHO cells and HEK-293 FLP-In cells purchased from Invitrogen (Carlsbad, Calif.) using lipofectamine (Invitrogen). The Flp-In system allows integration and expression of a particular gene of interest at a specific genomic location utilizing the Flp recombinase from yeast. The transfected cells were selected by growth in medium containing 200 μg/mL hygromycin (Invitrogen). Populations were frozen at early passage numbers, and these stocks were used for further studies. Stable clones that expressed the mRNAs were identified functionally by FLIPR as well as by RT-PCR. […] Two different rodent NMUR1 cell lines were thus generated: one with the codon as predicted from the genomic databases and another cell line with an engineered methionine (ATG) as the start codon. Additionally, stable cell lines expressing the human receptors were generated in HEK-293/aeq17 cells which stably express the aequorin gene under the CMV promoter. The human NMUR2 cDNA was cloned into pcDNA3.1 and human NMUR1 was subcloned into pIRES-puro (Clontech, Mountain View, Calif.), after transfection cells were selected in media containing G418 and either hygromycin (NMUR2) or puromycin (NMUR1).
(§2) The NMU receptors signal primarily through Gαq/11 proteins; therefore calcium mobilization assays can be utilized for functional activity.
(§3) Stable cell lines expressing human and or rodent NMUR1 or human NMUR2 receptors were plated at a density of 12,000 cells per well overnight on poly-lysine coated 384-well black-walled plates. The following day, the media was removed from the plates and the cells were subsequently loaded with Fluo-3 (Molecular Probes), a calcium sensitive dye, diluted in FLIPR buffer (1× Hank's buffered saline containing 20 mM HEPES, 0.1% BSA, 2.5 mM probenecid (Sigma) and 1.6 mM TR40). All reagents are from Invitrogen unless otherwise noted. Peptide stocks were resuspended in DMSO at a stock concentration of 2 mM and diluted in FLIPR buffer on the day of the experiment to a 4 μM working stock solution.
(§4) After a 90 minute incubation at room-temperature, cell plates were loaded onto a FLIPR (Molecular Devices) to monitor cellular fluorescence (excitation=488 nm; emission=540 nm) before and after compound/peptide addition. Eight to twelve point dose responses were tested on NMUR-expressing cell lines using FLIPR with 1 μM peptide as the highest dose. The response after peptide addition was taken as the maximum fluorescence units minus the fluorescence immediately prior to stimulation for each well. EC50 values were calculated using GraphPad Prism (San Diego, Calif.) software.
In vitro responses of Neuromedin U receptor agonists (NMU1 to NMU25) in the FLIPR assay for human (Table 3), mouse (Table 4) and rat (Table 5) NMUR1 and NMUR2. EC50s are reported in nM values. Percent activity refers to the maximum response at 1 μM compared to the hNMU-25 response at the same concentration. NT=not tested.
(In general: Calcium assays in cells follow changes in intracellular calcium, usually with a dye or a luminescent sensor.)

For the next experiment, the target named is T1, hNMUR1 (Homo sapiens, UniProt Q9HB89).
T1 sequence (Q9HB89 1-426): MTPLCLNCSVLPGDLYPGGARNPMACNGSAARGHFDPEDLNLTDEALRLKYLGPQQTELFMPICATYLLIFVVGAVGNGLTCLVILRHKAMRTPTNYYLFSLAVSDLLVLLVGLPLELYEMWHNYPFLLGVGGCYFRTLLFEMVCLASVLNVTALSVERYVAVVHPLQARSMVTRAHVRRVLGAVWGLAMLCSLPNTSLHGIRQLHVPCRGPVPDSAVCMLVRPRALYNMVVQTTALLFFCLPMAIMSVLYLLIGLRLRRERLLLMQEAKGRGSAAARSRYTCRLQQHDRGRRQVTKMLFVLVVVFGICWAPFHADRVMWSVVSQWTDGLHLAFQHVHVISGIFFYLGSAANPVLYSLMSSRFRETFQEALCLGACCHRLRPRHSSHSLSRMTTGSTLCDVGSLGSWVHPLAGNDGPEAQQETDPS
Briefly: In vitro functional assay, HEK-hR1 cells. It counts as cell-based. Set-up: expressed in transfected cells; host or cells: FLP-In CHO or HEK-293 FLP-In cells (pcDNA5); HEK-293/aeq17 lines (pIRES-puro) were also made.
Description: as §1, §2, §3, §4
In addition to FLIPR, NMU receptor function can also be evaluated using an aequorin assay. Stable cell lines expressing the aequorin jelly fish gene can be used to report the activation of GPCRs by monitoring intracellular calcium mobilization. The objective is to identify compounds which specifically stimulate aequorin bioluminescence. Calcium-dependent luminescence is generated by the treatment of cells with the coelenterate luciferin, coelenterazine. Briefly, confluent monolayers of HEK-293/aeq 17 cells expressing hNMUR1 or hNMUR2 are “charged” with coelenterazine (Molecular Probes, Carlsbad, Calif.). Confluent T75 flasks are rinsed with media containing 300 μM glutathione and 0.1% FBS. Cells are incubated at 37° C. for one hour in 8 mL media, 0.1% FBS, 300 μM glutathione, and 20 μM coelenterazine. T75 flasks are subsequently rinsed with 6 mL ECB buffer (140 mM NaCl, 20 mM KCl, 20 mM HEPES, 5 mM glucose, 1 mM MgCl, 1 mM CaCl2, 0.1 mg/mL BSA, PH 7.3-7.4). Cells are removed from the flask in ECB buffer, pelleted, and resuspended at a density of 2×10^5 cells/mL. Agonists are added to the cells and activity is determined using a luminometer. […]

Non-standard residues stand in square brackets, D forms with d. Residues, ends and D or L forms follow the SMILES beside them. A value given as a limit tells only on which side of the number the result lay.

A word on the IC50: it is the concentration that gives 50% inhibition. One may read the EC50 as the concentration at which the effect is half-maximal.

Sequence of rat NMUR2 (Q9ESQ4 whole entry): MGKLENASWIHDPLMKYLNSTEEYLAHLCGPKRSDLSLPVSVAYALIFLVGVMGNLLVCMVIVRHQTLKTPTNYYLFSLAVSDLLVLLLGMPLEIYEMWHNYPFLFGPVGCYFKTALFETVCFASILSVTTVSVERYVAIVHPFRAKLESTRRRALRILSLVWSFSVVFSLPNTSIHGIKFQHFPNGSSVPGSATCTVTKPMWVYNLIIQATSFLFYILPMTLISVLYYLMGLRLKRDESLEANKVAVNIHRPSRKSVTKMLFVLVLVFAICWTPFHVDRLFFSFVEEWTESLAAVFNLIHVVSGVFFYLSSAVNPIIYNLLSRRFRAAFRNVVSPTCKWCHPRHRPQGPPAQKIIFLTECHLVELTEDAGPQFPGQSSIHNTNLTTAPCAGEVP

Consider `CC(C)C[C@@H](NC(=O)[C@H](Cc1ccccc1)NC(=O)[C@H](Cc1ccc(O)cc1)NC(=O)CNC(=O)[C@H](CCCNC(=N)N)NC(=O)[C@H](CO)NC(=O)[C@H](CCC(N)=O)NC(=O)[C@H](CO)NC(=O)[C@H](C)NC(=O)[C@H](Cc1ccccc1)NC(=O)[C@@H]1CCCN1C(=O)[C@H](CO)NC(=O)[C@H](CCC(N)=O)NC(=O)[C@H](Cc1ccccc1)NC(=O)[C@H](CCC(=O)O)NC(=O)[C@H](CCC(=O)O)NC(=O)[C@H](CC(=O)O)NC(=O)[C@@H](NC(=O)[C@H](CCCNC(=N)N)NC(=O)[C@@H](N)Cc1ccccc1)C(C)C)C(=O)N[C@@H](Cc1c[nH]c2ccccc12)C(=O)N[C@@H](CCCNC(=N)N)C(=O)N1CCC[C@H]1C(=O)N[C@@H](CCCNC(=N)N)C(=O)N[C@@H](CC(N)=O)C(N)=O` [Agonist H] (H-FRVDEEFQSPFASQSRGYF[dL]WRPRN-NH2; N-terminus assumed), for which the IC50 on rat NMUR2 is over 1000 nM; against hNMUR1 (Table 8, HEK-hR1, functional) it was 19 nM. Further, the “% Activity” value at rat NMUR2 (functional, rat R2, relative to native hNMU responses) is listed as 42%; on hNMUR1 (Table 8, HEK-hR1, functional), 88%.
Regarding “H-FRVDEEFQSPFASQSRGYFLFRPRN-NH2 [hNMU-25, reference compound]”, at rat NMUR2, the 50% inhibitory concentration (IC50) is 1.6 nM. Besides, at hNMUR1 (Table 9, HEK-hR1, functional), the “% Activity” value was 100% and the EC50 turned out to be 5.5 nM.
